The record followed here is article PMC11546255, “Exploring the Frontier of Cyclic Dipeptides: A Bioinformatics Approach to Potential Therapeutic Applications in Schizophrenia” (International Journal of Molecular Sciences, 2024).

As usually defined, the IC50 is the midpoint of a concentration-inhibition curve. For orientation: Ki means the equilibrium dissociation constant of an inhibitor or competing ligand from its target. Usually inhibition stands for the relative decrease from the control value, in per cent. High values mean a response far below the control, low ones a response near the control.

A value given as a limit tells only on which side of the number the result lay.

The target in experiment [1] is T1, human SIGMA1 receptor (Homo sapiens, UniProt Q99720). The experiment in a line: SIGMA1 filtration radioligand binding assay ([3H]DTG, membranes of transfected HEK293 cells). Also on record: expressed in transfected cells; membrane/cell debris preparation. Conditions: for SIGMA1 % Inhibition of Max Dose / inhibition at 20 µM: Max Dose 20.000 μM. On the procedure: For SIGMA1 receptor expression in HEK293 cells, the human SIGMA1 receptor (U75283) in pcDNA 3.1(+) (Promega Corp., Madison, WI, USA) was used. In total, 2 μg of DNA was transfected in HEK293 cells (1,000,000 cells/dish) using FuGENE® HD Transfection Reagent (Promega Corp., Madison, WI, USA) according to the manufacturer’s recommendations. After 24 h, the medium was replaced by a medium containing the G418 antibiotic (300 μg/mL) (Burlington, MA, USA). The survival clones were scraped and cultured in individual dishes. After the cell amplification, they were harvested with trypsin and homogenized, then centrifuged at 50,000× g for 1 h, and the cell debris was used for the binding assay.
A SIGMA1 receptor-enriched membrane preparation was utilized for the binding assays at a 1.1 mg/mL concentration. Each assay well was loaded with 13 μg of this membrane preparation to ensure consistent receptor availability across all experimental conditions.
This methodical preparation ensures that the assay conditions are reproducible and that the concentration-dependent effects of the compounds can be accurately evaluated.
Reference and test compounds were diluted and transferred sequentially to the assay plate. We added non-specific binding compounds (low control, LC) and DMSO as the total binding high control (HC) according to the non-specific binding plate layout. We added 100 μL of the membrane stock solution and 100 μL of the radiolabeled ligand to the plate. We sealed the plates and shook them at 300 rpm under specified conditions. We filtered the reaction mixture through GF/B plates using a Filtermate-Harvester (PerkinElmer, Waltham, MA, USA, Cat: C961961), followed by washing with cold wash buffer, and dried and sealed the filter plates.
We added non-specific binding compounds (as the LC) and DMSO as the total binding HC according to the non-specific binding plate layout. Then, we added 100 μL of the membrane stock solution and 100 μL of the radiolabeled ligand to the plate. We sealed the plates and shook them at 300 rpm under specified conditions. […] After the binding experiment, we filtered the reaction mixture through GF/B plates using a Perkin Elmer Filtermate Harvester, washing each plate six times with a cold wash buffer. We dried the filter plates for 1 h at 50 °C. After drying, we sealed the bottom of the filter plate wells with Perkin Elmer Unifilter-96 backing tape. […] We counted the 3H on the filters using a Perkin Elmer MicroBeta2 Reader.
We analyzed the data using Prism 5. We fitted dose–response curves and determined the half maximal inhibitory concentration (IC50) using the “log(inhibitor) vs. response-variable slope” model.
We used the Z’-Prime equation for quality control, which can be written as follows: Z′ Factor=1−3×STDEVHC+3×STDEVLC/AVGHC − AVGLC∗100% where STDEVHC is the average standard deviation of MAX, STDEVLC is the average standard deviation of MIN, AVGHC is the average of MAX, and AVGLC is the average of MIN. Z’ must be ≥0.5 as the quality control standard.

The target in experiment [2] is T1, human SIGMA1 receptor. The experiment in a line: radioligand binding; filtration competition assay: membranes of HEK293 cells expressing human SIGMA1 (13 ug per well), [3H]DTG at 0.005 uM displaced by the test compound, max dose 20 uM, room temperature, GF/B filter plates.
The mark [3] stands for this setting: [3H]DTG 0.005 μM, membranes of HEK293 cells expressing human SIGMA1, read-out: SIGMA1 IC50.
The mark [4] stands for this setting: [3H]DTG 0.005 μM, membranes of HEK293 cells expressing human SIGMA1, read-out: SIGMA1 Ki.

T1 sequence (Q99720 whole entry): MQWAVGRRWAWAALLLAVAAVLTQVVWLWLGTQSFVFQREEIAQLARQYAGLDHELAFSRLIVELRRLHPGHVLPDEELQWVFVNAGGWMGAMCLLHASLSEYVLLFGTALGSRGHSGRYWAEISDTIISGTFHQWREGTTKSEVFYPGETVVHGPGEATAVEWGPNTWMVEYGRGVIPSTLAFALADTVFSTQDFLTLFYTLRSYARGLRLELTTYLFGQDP

Turning to `O=C1CNC(=O)CN1` [Cyclo(Gly-Gly)], the “SIGMA1 % Inhibition of Max Dose” value at human SIGMA1 receptor [1] was 3.200%. Also, the IC50 on human SIGMA1 receptor [1] (setting [3]) was over 20 µM. Moreover, the Ki at human SIGMA1 receptor [1] (setting [4]) is over 17.4 µM.

In the experiment with human SIGMA1 receptor [2], cyclo(Ala-His) showed a % Inhibition of Max Dose of 50.2% and an IC50 of 19.4 µM.

Regarding `O=C1N[C@@H](Cc2ccc(O)cc2)C(=O)N[C@H]1Cc1ccc(O)cc1` [Cyclo(Tyr-Tyr)], the “SIGMA1 % Inhibition of Max Dose” value at human SIGMA1 receptor [1] came out at 40.29%. Besides, the IC50 at human SIGMA1 receptor [1] (setting [3]) was over 20 µM. In addition, the Ki at human SIGMA1 receptor [1] (setting [4]) is over 17.4 µM.

With `O=C1CNC(=O)[C@H](Cc2ccc(O)cc2)N1` [Cyclo(Gly-Tyr)], the “SIGMA1 % Inhibition of Max Dose” value at human SIGMA1 receptor [1] stood at 42.82%. In addition, the IC50 at human SIGMA1 receptor [1] (setting [3]) was over 20 µM. Also, the Ki on human SIGMA1 receptor [1] (setting [4]) is over 17.4 µM.

With `O=C1NC(Cc2ccc(O)cc2)C(=O)N2CC(O)CC12` (centres unmarked) [Cyclo(Hyp-Tyr)], the “SIGMA1 % Inhibition of Max Dose” value on human SIGMA1 receptor [1] was determined as 49.80%. The IC50 at human SIGMA1 receptor [1] (setting [3]) was over 20 µM. Besides, the Ki on human SIGMA1 receptor [1] (setting [4]) was over 17.4 µM.

As to `C[C@@H]1NC(=O)[C@H](Cc2cnc[nH]2)NC1=O` [Cyclo(Ala-His)], at human SIGMA1 receptor [1], the inhibition at 20 µM turned out to be 50.2%. On human SIGMA1 receptor [1] (setting [3]), the IC50 is 19.4 µM. The Ki at human SIGMA1 receptor [1] (setting [4]) turned out to be 16.9 µM.

cyclo(Val-Gly): in the experiment with human SIGMA1 receptor [2], the % Inhibition of Max Dose amounted to 61.9% and the half-inhibitory concentration (IC50) turned out to be 11.5 µM.

Take `O=C1NC(Cc2ccccc2)C(=O)N2CCCC12` (centres unmarked) [Cyclo(Phe-Pro)]: the “SIGMA1 % Inhibition of Max Dose” value on human SIGMA1 receptor [1] is on record as 24.20%. Besides, the IC50 at human SIGMA1 receptor [1] (setting [3]) was over 20 µM. Further, the Ki on human SIGMA1 receptor [1] (setting [4]) was over 17.4 µM.

As for cyclo(Val-Val), in the experiment with human SIGMA1 receptor [2], the IC50 is over 20 µM and the Ki was over 17.4 µM.

`O=C1NC(Cc2ccccc2)C(=O)N2CC(O)CC12` (centres unmarked) [Cyclo(Hyp-Phe)]: the “SIGMA1 % Inhibition of Max Dose” value at human SIGMA1 receptor [1] is listed as 54.26%. The IC50 at human SIGMA1 receptor [1] (setting [3]) is over 20 µM. Moreover, the inhibitory constant (Ki) at human SIGMA1 receptor [1] (setting [4]) is over 17.4 µM.

On human SIGMA1 receptor [1], `CC(C)C1NC(=O)CNC1=O` (centres unmarked) [Cyclo(Val-Gly)] had a Ki of 9.95 µM and an inhibition at 20 µM of 61.9%. For the same compound, the IC50 on human SIGMA1 receptor [1] (SIGMA1 IC50, [3H]DTG 0.005 μM, membranes of HEK293 cells expressing human SIGMA1) stood at 11.5 µM.

In the case of `CC1NC(=O)CNC1=O` (centres unmarked) [Cyclo(Ala-Gly)], the “SIGMA1 % Inhibition of Max Dose” value at human SIGMA1 receptor [1] turned out to be 44.60%. Further, at human SIGMA1 receptor [1] (setting [3]), the IC50 is over 20 µM. In addition, the Ki on human SIGMA1 receptor [1] (setting [4]) is over 17.4 µM.

In turn, `C[C@@H]1NC(=O)[C@H](CCC(N)=O)NC1=O` [Cyclo(Ala-Gln)] came in with an inhibition at 20 µM at human SIGMA1 receptor [1] of 59.7%. On human SIGMA1 receptor [1] (setting [3]), the IC50 amounted to 13.4 µM. The Ki at human SIGMA1 receptor [1] (setting [4]) is 11.7 µM.

As to `O=C1N[C@@H](Cc2ccccc2)C(=O)N[C@H]1Cc1ccccc1` [Cyclo(Phe-Phe)], the “SIGMA1 % Inhibition of Max Dose” value on human SIGMA1 receptor [1] is recorded as 39.40%. Further, the IC50 on human SIGMA1 receptor [1] (setting [3]) was over 20 µM. Besides, the Ki on human SIGMA1 receptor [1] (setting [4]) was over 17.4 µM.

In the experiment with human SIGMA1 receptor [2], cyclo(Ala-Gln) showed a % Inhibition of Max Dose of 59.7% and an IC50 of 13.4 µM.
